System: HER2+ cell lines
Assay: In vitro cell growth assays: drug combination effects (CellTiter-Glo cell viability)
Assay type: cell-based
Experimental: Cells (BT474-M3, NCI-N87, NCI-N87-PIK3CA(wt), NCI-N87-PIK3CA(H1047R), NCI-N87-PIK3CA(E454K), COLO-678, KYSE-410, ZR75-1, MDA-MB-361 or MDA-MB-175-VII) are seeded at 700 cells per 384-well plate in 10% FBS cell growth medium and treated with the five drugs, separately or in combination, at […], with and without 5 nM HRG-β1 pre-stimulation (for four hours). Cell viability was determined 72 hours later with CellTiter-Glo® luminescent cell viability assay (Promega).
This panel included cells harboring PI3KCA-activating mutations (both natural and engineered), PTEN deletions, and KRAS-activating mutations, as well as PI3K and MAPK-wild type cells. To clarify and summarize the drug-response relationships, multivariate regression models were parameterized for each cell line, simulating % cell growth inhibition as linear combinations of the five input drug concentrations. Regression coefficients for each drug were grouped by mutational background and the presence or absence of heregulin stimulation, and average values computed (FIG. 4B).

SMILES | sensitivity of PI3K-mutant cells to drug-containing regimens (PI3K-mutant cells (MDA-MB-361, ZR-75-1, and NCI-N87-PIK3CA)) | effect of HRG on sensitivity of cells to the drug (cell growth inhibition) (presence of 5 nM exogenous HRG, regardless of genetic background) | sensitivity of wild-type cells to drug-containing regimens (wild-type cells)
NC1(c2ccc(-c3nc4ccn5c(=O)[nH]nc5c4cc3-c3ccccc3)cc2)CCC1 [MK2206] | most sensitive | – | –
CS(=O)(=O)CCNCc1ccc(-c2ccc3ncnc(Nc4ccc(OCc5cccc(F)c5)c(Cl)c4)c3c2)o1 [lapatinib] | – | desensitizes | most sensitive
